# Experimental data from patent US12678511B2, “Peptide and use thereof” (Kansai Medical University Educational Corgoration, priority 2019, dated 2026).
# Peptide text beside a SMILES is read from it. * marks the point of attachment. 5FAM = O=C1OC2(c3ccc(O)cc3Oc3cc(O)ccc32)c2ccc(C(=O)*)cc21
# Experiments:
# [1] = system: cancer stroma (fibrous stroma) of tumor tissue, BxPC3 cells and hMSC transplanted; assay: Selective absorption in scirrhous pancreatic cancer model mouse (tissue analysis); format: in vivo; details: 200 μg intravenous, 30 minutes after injection, FIG. 7B, 7C
# Description: A scirrhous pancreatic cancer model mouse having scirrhous carcinoma that forms abundant cancer stroma was produced in accordance with the method disclosed in Reference Document 1 (Saito K et al., “Stromal mesenchymal stem cells facilitate pancreatic cancer progression by regulating specific secretory molecules through mutual cellular interaction.”, Journal of Cancer, Vol. 9, No. 16, pp. 2916-2929, 2018). Specifically, 6-week old NOD/SCID mice (CLEA Japan Inc., Japan) were raised under pathogen-free conditions. A cell mixture containing BxPC3 cells (1×10^5 cells) and hMSC (1×10^5 cells) was injected either subcutaneously or into the abdominal cavity of each mouse. By raising the mice for 6 weeks from the time of cell injection, scirrhous pancreatic cancer model mice were obtained having an abundantly developed cancer stroma that imitates the tissue in a human pancreatic cancer patient (see FIG. 7A).
# [FAM]-tandem MSCPP106 (200 μg) was injected intravenously into each obtained scirrhous carcinoma model mouse. Subsequently, the pharmacokinetics of the peptide 30 minutes after the intravenous injection were analyzed by tissue analysis of the freshly dissected specimen of the peptide-administered mouse. FIG. 7B is a series of bright-field images (left) and fluorescent images (right) of various tissues and tumor tissues resected from the scirrhous carcinoma model mouse. […]
# [2] = system: cancer stroma of the stomach scirrhous carcinoma (HSC58 cells and hMSC); assay: Absorption into cancer stroma of scirrhous stomach cancer mouse model; format: in vivo; details: 300 μg intravenous, 60 minutes after injection, FIG. 10B
# Description: Stomach poorly differentiated scirrhous adenocarcinoma, which is an example of a typical scirrhous carcinoma, is classified by visual classification into type 4 stomach cancer, and this type 4 stomach cancer has an extremely poor prognosis, with a five-year survival rate of about at least 4% but not more than 16%. Accordingly, in order to investigate the application of [FAM]-tandem MSCPP106 to the CAF that develop in the scirrhous stroma of cancer other than pancreatic cancer, a scirrhous stomach cancer mouse transplanted model was produced, and the absorption into scirrhous cancer stroma other than pancreatic cancer was investigated. With the exceptions of using human stomach poorly differentiated adenocarcinoma HSC58 cells instead of the BxPC3 cells, and rearing the mouse for 40 days from the time of cell injection, the same method as Example 7 was used to obtain a scirrhous stomach cancer mouse model. The HSC58 cells are a low metastatic human scirrhous stomach cancer cell line. Subsequently, [FAM]-tandem MSCPP106 (300 μg) was injected intravenously into the obtained scirrhous cancer mouse model, and the in-vivo absorption pharmacokinetics of the peptide 60 minutes after the intravenous injection were analyzed by tissue analysis of the freshly dissected specimen of the peptide-administered mouse. […]
smiles,measurement,setting,value
CC(C)C[C@H](NC(=O)[C@H](Cc1c[nH]cn1)NC(=O)[C@H](CCCNC(=N)N)NC(=O)[C@H](Cc1ccccc1)NC(=O)[C@H](CC(C)C)NC(=O)[C@H](CCC(=O)O)NC(=O)[C@H](C)NC(=O)[C@H](CS)NC(=O)[C@H](CCCCN)NC(=O)CNC(=O)[C@H](CC(C)C)NC(=O)[C@H](Cc1c[nH]cn1)NC(=O)[C@H](CCCNC(=N)N)NC(=O)[C@H](Cc1ccccc1)NC(=O)[C@H](CC(C)C)NC(=O)[C@H](CCC(=O)O)NC(=O)[C@H](C)NC(=O)[C@H](CS)NC(=O)[C@H](CCCCN)NC(=O)c1ccc2c(c1)C(=O)OC21c2ccc(O)cc2Oc2cc(O)ccc21)C(=O)O [[FAM]-tandem MSCPP106] (5FAM-KCAELFRHLGKCAELFRHL-OH),absorption into the cancer stroma (fibrous stroma) inside tumor tissue,[1],strong absorption
same,absorption into the cancer stroma of the stomach scirrhous carcinoma,[2],strong selective absorption
